Each structure is given as a SMILES string. Entries after “also recorded” stand apart in the source; their conditions may differ.

Data set [1] concerns zymosan induced neutrophil migration. Nature of the data set: Air pouch model of inflammation, zymosan induced neutrophil migration. Format: in vivo, mice. Here is the method:
Male outbred Swiss albino mice (18-20 g body weight) were purchased from Bantin and Kingman (T.O. strain; Hull, Humberside) and maintained on a standard chow pellet diet with tap water ad libitum and a 12:00 h light/dark cycle. All animals were housed for 3 days prior to experimentation to allow body weight to reach 20-22 g. On the day of experiment mice ranged from 24-26 g.
Air-pouches were formed on the back of mice by air injection (2.5 ml s.c.) on day 0 and day 3 (Perretti and Flower, 1993).
Zymosan A was allowed to defrost at room temperature for 30 min prior to being added to sterile PBS at a concentration of 2 mg/ml forming a homogenous suspension.
(§1) At time 0, mice received either 0.5 ml of zymosan (1 mg) (group A, B, C) injected locally into the air-pouch. Group D and E were left untreated at this time-point. At 4 h post-zymosan the animals were placed in CO2. Air-pouches were then washed with 2 ml of PBS containing 3 mM EDTA, and livers were recovered and snap frozen for later analysis.
The number of migrated leukocytes (≧90% polymorphonuclear leukocytes, PMN) was determined in the lavage fluid from each air-pouch, by taking an aliquot (100 μl) of the lavage fluid and diluting 1:10 in Turk's solution (0.01% crystal violet in 3% acetic acid). The samples were then vortexed and 10 μl of the stained cell solution were placed in a Neubauer haematocymometer and neutrophils numbers counted using a light microscope (Olympus B061).
Neutrophil numbers were compared between groups using ANOVA plus the Bonferroni test. TAT levels were compared using a t-test.

Data set [2] relates to tyrosine amino transferase (TAT). The data set is described as follows: Quantitation of tyrosine amino transferase (TAT) in the livers of air pouch mice. It counts as in vivo. Particulars: 3 μg i.p., FIG. 22. Here is the method:
as §1
Quantitation of Tyrosine Amino Transferase (TAT) Protein in the Livers: In this method a colourimetric approach is used to quantitate TAT activity. The TAT enzyme catalyses the following reaction: L-tyrosine+2-oxoglutarate⇄4-hydroxyphenylpyruvate (pHPP)+L-glutamate
This reaction also requires pyridoxal phosphate (PLP) as a co-factor. Strong alkali conditions can then be used to convert pHPP to p-hydroxybenzaldehyde (pHBA) and oxalate. The amount of pHBA can then be assessed by measuring its absorbance at 331 nm (extinction coefficient 19,900 M^−1cm^−1) this figure is then assumed to be directly proportional to TAT activity. Livers were homogenized and the cells were stored on ice. […]
For each reaction a control reaction was set up without the ketoglutarate. […] The samples were incubated at room temperature for a further 30 mins and then the absorbance of each sample was assessed at 331 nm on a spectrophotometer (Ultrospec III, Pharmacia).

The target in the next data set is T1, glucocorticoid receptor (Homo sapiens, UniProt P04150).
T1 sequence (P04150 1-777): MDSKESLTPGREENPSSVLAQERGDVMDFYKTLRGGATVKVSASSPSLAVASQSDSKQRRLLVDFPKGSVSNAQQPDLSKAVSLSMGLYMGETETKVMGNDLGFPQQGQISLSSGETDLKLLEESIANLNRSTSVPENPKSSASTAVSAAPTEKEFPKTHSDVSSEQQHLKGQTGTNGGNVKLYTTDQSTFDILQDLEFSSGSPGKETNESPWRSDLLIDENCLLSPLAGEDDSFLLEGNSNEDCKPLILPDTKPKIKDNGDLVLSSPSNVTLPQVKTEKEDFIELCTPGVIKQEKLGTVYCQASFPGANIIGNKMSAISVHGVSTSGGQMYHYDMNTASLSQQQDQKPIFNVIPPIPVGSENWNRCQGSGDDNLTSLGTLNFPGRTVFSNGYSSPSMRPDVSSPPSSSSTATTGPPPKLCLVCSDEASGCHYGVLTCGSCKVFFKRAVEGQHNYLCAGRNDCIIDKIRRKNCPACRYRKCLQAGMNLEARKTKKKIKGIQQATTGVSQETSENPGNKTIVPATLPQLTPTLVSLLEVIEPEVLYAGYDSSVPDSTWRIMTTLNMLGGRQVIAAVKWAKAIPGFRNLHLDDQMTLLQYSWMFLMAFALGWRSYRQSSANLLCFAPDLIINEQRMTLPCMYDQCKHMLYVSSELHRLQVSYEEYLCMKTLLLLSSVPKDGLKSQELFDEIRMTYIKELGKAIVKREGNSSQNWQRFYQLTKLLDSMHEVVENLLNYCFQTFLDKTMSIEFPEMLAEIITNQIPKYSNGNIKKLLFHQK
The data set is described as follows: Ligand binding competition assay, 3H Dexamethasone. Details: Human HeLa 53 cells; endogenous in cells. Particulars: Human HeLa 53 cells, 2 hours @25° C. Here is the method:
Binding of compound G to the glucocorticoid receptor was investigated using a standard competition assay. The conditions were as follows:
IC50 values were determined by a non-linear, least squares regression The KI values were calculated using the equation of Cheng and Prusoff using the observed IC50 of the test compound, the concentration of radioligand employed in the assay, and the historic values for the Kd for the ligand. The Hill coefficient (nH), defined as the slope of the competitive binding curve, was calculated.

As to `CCCNC(=O)C1(O)C(C)CC2C3CCC4=CC(=O)C=CC4(C)C3(F)C(O)CC21C` (stereo not shown) [Compound G], the “Neutrophils (10^6 per mouse)” value in data set [1] (3 μg i.p. at -1 h, Zymosan 1 mg into air-pouch, 4 h time-point, mean ± S.E. of 8 mice) is 6.33 ± 0.79 * 10^6 per mouse. Further, the “reduction of neutrophil accumulation” value in data set [1] (3 μg i.p., zymosan air pouch, 4 h) is approximately 30%. Moreover, in data set [2], the “liver TAT level compared with vehicle control groups” value is “does not cause-induction; also recorded: did not reduce the level of TAT”. Further, the “binding to the glucocorticoid receptor, competition with 3H Dexamethasone” value at glucocorticoid receptor is on record as “bound to the glucocoticoid receptor; also recorded: right shifted when compared to dexamethasone; also recorded: less potent ligand than dexamethasone”.

Source of the values: patent US7763596B2, “Selective glucocorticoid receptor agonists” (The University of Manchester, priority 2000, dated 2010).
